Experimental findings from patent publication US20240158446A1, “CYCLIC COMPOUND HAVING SELECTIVE INHIBITORY ACTION ON KRAS OVER HRAS AND NRAS” (CHUGAI SEIYAKU KABUSHIKI KAISHA, priority 2021, published 2024) are described below.

For orientation: Kd means the free concentration of one partner at which half of the binding sites on the other are occupied at equilibrium, for simple one-to-one binding.

Structures are written as SMILES. Like-named read-outs stand apart in the source and are kept apart here. *1 amine or outer side, *2 acyl side, *3 side chain or, on linkers, in order; H or OH if unused. Where a SMILES comes first, the peptide text is derived from it. Bridges are numbered along the chain shown (N, C = ends). [ ]: non-standard residue; d: D form. The star is where a group is joined. hPhe(3-Cl-4-CF3) = N[C@@H](CCc1ccc(C(F)(F)F)c(Cl)c1)C(=O)O; X27 = O=C([C@H](Cc1ccc(C(F)(F)F)cc1)N(CC1CC1)[*:1])[*:2]; NPrPhe(4-CF3) = CCCN[C@@H](Cc1ccc(C(F)(F)F)cc1)C(=O)O; NMeGly(cPent) = CN[C@H](C(=O)O)C1CCCC1; Hyp = O=C(O)[C@@H]1C[C@@H](O)CN1; NMeD = CN[C@@H](CC(=O)O)C(=O)O; NMeL = CN[C@@H](CC(C)C)C(=O)O; Morpholide = C1CN(*)CCO1; Ac5c = NC1(C(=O)O)CCCC1; Aze = O=C(O)[C@@H]1CCN1; Ac4c = NC1(C(=O)O)CCC1; Sar = CNCC(=O)O

For test [1], the target named is GDP-bound NRAS wild-type protein (Homo sapiens, UniProt P01111). As to the kind of experiment: Binding to NRAS by surface plasmon resonance (SPR), Single Cycle Kinetics. The settings on record: for NRAS/KRAS (ratio of KD value for NRAS to KD value for KRAS): SPR, GDP-bound NRAS wild-type protein vs GDP-bound KRAS wild-type protein. A general note: In SPR one partner is held on a chip, and binding of the other changes the refractive index at the surface.

Test [2] addresses GDP-bound KRAS wild-type protein (Homo sapiens, UniProt P01116). The test can be described thus: Binding to KRAS by surface plasmon resonance (SPR), Single Cycle Kinetics. The following applies: GDP-bound KRAS wild-type protein, read-out: KRAS KD.
In test [3] the target is GDP-bound HRAS wild-type protein (Homo sapiens, UniProt P01112). The test can be described thus: Binding to HRAS by surface plasmon resonance (SPR), Single Cycle Kinetics. The settings on record: for HRAS/KRAS (ratio of KD value for HRAS to KD value for KRAS): SPR, GDP-bound HRAS wild-type protein vs GDP-bound KRAS wild-type protein.
The mark [4] stands for this setting: SPR Single Cycle Kinetics, 1:1 binding model.

GDP-bound KRAS wild-type protein, sequence (P01116 whole entry): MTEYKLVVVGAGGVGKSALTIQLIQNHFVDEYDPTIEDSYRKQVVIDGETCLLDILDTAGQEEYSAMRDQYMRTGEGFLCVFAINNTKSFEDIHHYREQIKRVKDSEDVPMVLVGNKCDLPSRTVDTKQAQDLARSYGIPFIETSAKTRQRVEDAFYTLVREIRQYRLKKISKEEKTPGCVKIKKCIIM
GDP-bound NRAS wild-type protein, sequence (P01111 whole entry): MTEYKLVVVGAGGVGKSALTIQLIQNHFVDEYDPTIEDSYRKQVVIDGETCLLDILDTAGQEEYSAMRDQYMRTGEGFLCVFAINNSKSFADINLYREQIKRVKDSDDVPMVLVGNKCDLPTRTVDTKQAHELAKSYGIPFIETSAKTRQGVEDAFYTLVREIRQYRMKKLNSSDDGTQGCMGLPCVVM
GDP-bound HRAS wild-type protein, sequence (P01112 whole entry): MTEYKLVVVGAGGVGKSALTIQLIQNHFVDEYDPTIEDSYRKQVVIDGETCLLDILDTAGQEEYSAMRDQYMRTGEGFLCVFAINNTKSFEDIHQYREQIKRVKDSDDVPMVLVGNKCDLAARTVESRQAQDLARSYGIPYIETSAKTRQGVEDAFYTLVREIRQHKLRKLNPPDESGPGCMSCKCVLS

As to `CCO[C@@H]1C[C@H]2C(=O)NC3(CC(C)(C)C3)C(=O)N(C)[C@@H](C(CC)CC)C(=O)N(C)[C@H](C(=O)N(C)C)CC(=O)N(C)[C@@H](CC3CCC3)C(=O)N[C@@H]([C@@H](C)CC)C(=O)N(C)CC(=O)N(C)[C@H]3C/C=C\CCN(C3=O)[C@@H](Cc3ccc(C(F)(F)F)cc3)C(=O)N(C)CC(=O)N[C@@H](CCc3ccc(Cl)c(Cl)c3)C(=O)N2C1` [PP2180], in test [1], the “NRAS/KRAS (ratio of KD value for NRAS to KD value for KRAS)” value is recorded as “AA (a compound having 20 or more is denoted as AA)”. The Kd in test [2] (SPR, Single Cycle Kinetics) was 0.66 nM. For the same molecule, the “HRAS/KRAS (ratio of KD value for HRAS to KD value for KRAS)” value in test [3] is “A (a compound having 10 or more and less than 20 is denoted as A)”.
For `CCO[C@@H]1C[C@H]2C(=O)NC3(CC(F)(F)C3)C(=O)N(C)[C@@H](C3CCCC3)C(=O)N(C)C(C3CCCCC3)CC(=O)N(C)[C@@H](COC)C(=O)N[C@@H]([C@@H](C)CC)C(=O)N(C)CC(=O)N(C)[C@H]3C/C=C\CCN(C3=O)[C@@H](Cc3ccc(C(F)(F)F)cc3)C(=O)N(C)CC(=O)N[C@@H](CCc3cc(F)c(C(F)(F)F)c(F)c3)C(=O)N2C1` (stereo partly drawn) [PP1586], the “NRAS/KRAS (ratio of KD value for NRAS to KD value for KRAS)” value in test [1] (KD ratio class) was “A (a compound having 10 or more and less than 20 is denoted as A)”. Moreover, in test [2] (SPR, Single Cycle Kinetics, 1:1 binding model), the Kd is 0.76 nM. Further, in test [3] (KD ratio class), the “HRAS/KRAS (ratio of KD value for HRAS to KD value for KRAS)” value was “A (a compound having 10 or more and less than 20 is denoted as A)”.
On to `CC[C@H](C)[C@@H]1NC(=O)[C@H](CC(C)C)N(C)C(=O)C[C@@H](C(=O)N2CCOCC2)N(C)C(=O)[C@H](C2CCCC2)N(C)C(=O)C2(CCCC2)NC(=O)[C@@H]2CCCN2C(=O)[C@H](CCc2ccc(C(F)(F)F)c(Cl)c2)NC(=O)CN(C)C(=O)[C@H](Cc2ccc(C(F)(F)F)cc2)N(CC2CC2)C(=O)CN(C)C(=O)CN(C)C1=O` [PP0122] ([NMeL]I[Sar][Sar][X27][Sar][hPhe(3-Cl-4-CF3)]P[Ac5c][NMeGly(cPent)][NMeD]-Morpholide; lactam N-11), for which the “NRAS/KRAS (ratio of KD value for NRAS to KD value for KRAS)” value in test [1] is “C (A compound having a KD ratio of 0.1 or more and less than 3 is denoted as C)”. For the same molecule, the Kd in test [2] (setting [4]) stood at 0.32 nM. Besides, in test [3], the “HRAS/KRAS (ratio of KD value for HRAS to KD value for KRAS)” value is “C (A compound having a KD ratio of 0.1 or more and less than 3 is denoted as C)”.
Take `CCCN1C(=O)CN(C)C(=O)[C@@H]2CCN2C(=O)[C@H]([C@@H](C)CC)NC(=O)[C@H](CC(C)C)N(C)C(=O)C[C@@H](C(=O)N(C)C)NC(=O)[C@H](C2CCCC2)N(C)C(=O)C2(CCC2)NC(=O)[C@@H]2CCCN2C(=O)[C@H](CCc2ccc(C(F)(F)F)c(Cl)c2)NC(=O)CN(C)C(=O)[C@@H]1Cc1ccc(C(F)(F)F)cc1` [PP0374] ([NMeL]I[Aze][Sar][NPrPhe(4-CF3)][Sar][hPhe(3-Cl-4-CF3)]P[Ac4c][NMeGly(cPent)]D-NMe2; lactam N-11): in test [1], the “NRAS/KRAS (ratio of KD value for NRAS to KD value for KRAS)” value was “B (a compound having 3 or more and less than 10 is denoted as B)”. Further, in test [2] (setting [4]), the Kd is 1.8 nM. In test [3], the “HRAS/KRAS (ratio of KD value for HRAS to KD value for KRAS)” value is “B (a compound having 3 or more and less than 10 is denoted as B)”.
For the molecule `CCC(CC)[C@H]1C(=O)N(C)[C@H](C(=O)N2CCCC2)CC(=O)N(C)[C@H]2CCC/C=C/c3ccc(cc3)C[C@@H](C(=O)N(C)CC(=O)N[C@@H](CCc3ccc(Cl)c(Cl)c3)C(=O)N3CCC[C@H]3C(=O)NC3(CC(C)(C)C3)C(=O)N1C)N1CC/C=C\C[C@@H](C1=O)N(C)C(=O)CN(C)C(=O)[C@H]([C@@H](C)CC)NC2=O` [PP2604], the “NRAS/KRAS (ratio of KD value with respect to GDP-bound NRAS wild-type protein to KD value with respect to KRAS)” value in test [1] (SPR KD ratio NRAS/KRAS, class symbols) is reported as “AA (a compound having 20 or more is denoted as AA)”. Moreover, in test [2] (setting [4]), the Kd worked out at 0.4 nM. Besides, the “HRAS/KRAS (ratio of KD value with respect to GDP-bound HRAS wild-type protein to KD value with respect to KRAS)” value in test [3] (SPR KD ratio HRAS/KRAS, class symbols) was “A (a compound having 10 or more and less than 20 is denoted as A)”.
For `CCCN1C(=O)CN(C)C(=O)CN(C)C(=O)[C@H]([C@@H](C)CC)NC(=O)[C@H](CC(C)C)N(C)C(=O)C[C@@H](C(=O)N2CCOCC2)N(C)C(=O)[C@H](C2CCCC2)N(C)C(=O)C2(CCC2)NC(=O)[C@@H]2C[C@@H](OCC)CN2C(=O)[C@H](CCc2ccc(C(F)(F)F)c(Cl)c2)NC(=O)CN(C)C(=O)[C@@H]1Cc1ccc(C(F)(F)F)cc1` [PP0392] ([NMeL]I[Sar][Sar][NPrPhe(4-CF3)][Sar][hPhe(3-Cl-4-CF3)][Hyp](Et)[Ac4c][NMeGly(cPent)][NMeD]-Morpholide; lactam N-11), the “NRAS/KRAS (ratio of KD value for NRAS to KD value for KRAS)” value in test [1] is “B (a compound having 3 or more and less than 10 is denoted as B)”. In addition, the Kd in test [2] (setting [4]) turned out to be 0.067 nM. Besides, the “HRAS/KRAS (ratio of KD value for HRAS to KD value for KRAS)” value in test [3] was “C (A compound having a KD ratio of 0.1 or more and less than 3 is denoted as C)”.
